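Abbreviation: GI50, concentration required for 50% inhibition of growth. The concentration for full growth arrest is given as TGI.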
Legend:
Assay in all cases: DTP human tumour cell line panel, 384-well format
[1] = tested on: RXF 393 renal
[2] = tested on: CAKI-1 renal
[3] = tested on: TK-10 renal
[4] = tested on: HOP-92 NSCLC
[5] = tested on: HOP-62 NSCLC
[6] = tested on: 786-0 renal
[7] = tested on: NCI-H460 NSCLC
[8] = tested on: OVCAR-3 ovarian
[9] = tested on: K-562 leukemia
[10] = tested on: A549 NSCLC
[11] = tested on: HS 578T breast
[12] = tested on: COLO 205 colon
[13] = tested on: NCI/ADR-RES ovarian
[14] = tested on: MDA-MB-468 breast
[15] = tested on: IGROV1 ovarian
[16] = tested on: OVCAR-4 ovarian
[17] = tested on: MDA-MB-435 melanoma
[18] = tested on: MOLT-4 leukemia
[19] = tested on: CCRF-CEM leukemia
[20] = tested on: EKVX NSCLC
[21] = tested on: UACC-62 melanoma
[22] = tested on: HCT-15 colon
[23] = tested on: SK-MEL-28 melanoma
[24] = tested on: NCI-H322M lung
[25] = tested on: MCF7 breast
[26] = tested on: RPMI-8226 leukemia
[27] = tested on: SF-268 CNS
[28] = tested on: ACHN renal
[29] = tested on: KM12 colon
[30] = tested on: T-47D breast
[31] = tested on: SK-MEL-5 melanoma
[32] = tested on: SN12C renal
[33] = tested on: HCC-2998 colon
[34] = tested on: PC-3 prostate
[35] = tested on: SK-OV-3 ovarian
[36] = tested on: OVCAR-5 ovarian
[37] = tested on: U251 glioblastoma
[38] = tested on: SNB-19 CNS
[39] = tested on: SW-620 colon
[40] = tested on: MALME-3M melanoma
[41] = tested on: M14 melanoma
[42] = tested on: NCI-H522 lung
[43] = tested on: UO-31 renal
[44] = tested on: NCI-H226 lung
[45] = tested on: HT29 colon
[46] = tested on: SK-MEL-2 melanoma
[47] = tested on: HL-60(TB) leukemia

COC(=O)c1ccc2c(C(=Nc3ccc(N(C)C(=O)CN4CCN(C)CC4)cc3)c3ccccc3)c(O)[nH]c2c1
GI50 [1]: 1110 nM | TGI [1]: 2580 nM | GI50 [2]: 1370 nM | TGI [2]: 2810 nM | GI50 [3]: 1830 nM | TGI [3]: 3.82 µM | GI50 [4]: 950 nM | TGI [4]: 2600 nM | GI50 [5]: 1610 nM | TGI [5]: 3.24 µM | GI50 [6]: 1400 nM | TGI [6]: 2790 nM | GI50 [7]: 1870 nM | TGI [7]: 3.3 µM | GI50 [8]: 1780 nM | TGI [8]: 3.26 µM | GI50 [9]: 137 nM | TGI [9]: 286 nM | GI50 [10]: 1740 nM | TGI [10]: 3.32 µM | GI50 [11]: 1280 nM | TGI [11]: 2820 nM | GI50 [12]: 1750 nM | TGI [12]: 3.14 µM | GI50 [13]: 14.6 µM | TGI [13]: > 100 µM | GI50 [14]: 1670 nM | TGI [14]: 3.08 µM | GI50 [15]: 427 nM | TGI [15]: 4.47 µM | GI50 [16]: 1440 nM | TGI [16]: 2870 nM | GI50 [17]: 1860 nM | TGI [17]: 3.33 µM | GI50 [18]: 730 nM | TGI [18]: 2090 nM | GI50 [19]: 1710 nM | TGI [19]: 3.09 µM | GI50 [20]: 2000 nM | TGI [20]: 3.65 µM | GI50 [21]: 1900 nM | TGI [21]: 3.32 µM | GI50 [22]: 1760 nM | TGI [22]: 3.33 µM | GI50 [23]: 1690 nM | TGI [23]: 3.08 µM | GI50 [24]: 1410 nM | TGI [24]: 3.36 µM | GI50 [25]: 1320 nM | TGI [25]: 2760 nM | GI50 [26]: 1340 nM | TGI [26]: 2620 nM | GI50 [27]: 1560 nM | TGI [27]: 3.1 µM | GI50 [28]: 1360 nM | TGI [28]: 2890 nM | GI50 [29]: 47.5 nM | TGI [29]: 1330 nM | GI50 [30]: 1370 nM | TGI [30]: 2720 nM | GI50 [31]: 2190 nM | TGI [31]: 3.64 µM | GI50 [32]: 1110 nM | TGI [32]: 2350 nM | GI50 [33]: 1580 nM | TGI [33]: 2960 nM | GI50 [34]: 2660 nM | TGI [34]: 10.3 µM | GI50 [35]: 1340 nM | TGI [35]: 2780 nM | GI50 [36]: 1300 nM | TGI [36]: 2690 nM | GI50 [37]: 1460 nM | TGI [37]: 2860 nM | GI50 [38]: 1440 nM | TGI [38]: 4.32 µM | GI50 [39]: 1820 nM | TGI [39]: 3.25 µM | GI50 [40]: 1460 nM | TGI [40]: 2780 nM | GI50 [41]: 1870 nM | TGI [41]: 3.29 µM | GI50 [42]: 750 nM | TGI [42]: 2040 nM | GI50 [43]: 1400 nM | TGI [43]: 2930 nM | GI50 [44]: 812 nM | TGI [44]: 2190 nM | GI50 [45]: 1230 nM | TGI [45]: 2510 nM | GI50 [46]: 1720 nM | TGI [46]: 3.12 µM | GI50 [47]: 2040 nM | TGI [47]: 3.47 µM

From PubChem BioAssay (NCI)
